Measurements as given in US10376520B2, “Methods for the treatment of cardiovascular disorders” (Galapagos NV, priority 2015, dated 2019).

System: RA patients
Assay: Atherogenic index, Study 2 (RA patients, monotherapy)
Format: in vivo, human
Experimental: As used herein, the term ‘atherogenic index’ refers to
Double-blind, placebo-controlled, monotherapy study in subjects with moderately to severely active RA who have an inadequate response to methotrexate (MTX) (oral or parenteral).
Twelve weeks of treatment with Compound 1 (dosed as a [Compound 1:HCl:3H2O]) at 50 mg, 100 mg, or 200 mg q.d.; or placebo. At Week 12, all subjects on placebo and the subjects on the 50 mg dose who have not achieved 20% improvement in swollen joint count (SJC66) and tender joint count (TJC68) will be assigned to 100 mg q.d. in a blinded fashion and will continue treatment until Week 24. Subjects in the other groups will maintain their randomized treatment until Week 24.
The atherogenic index has been identified to be a good predictor of cardiovascular disorders risks and is calculated as follows: […]

[1] = 50 mg q.d. non responders switching to 100 mg q.d., week 1
[2] = 50 mg q.d. non responders switching to 100 mg q.d., week 2
[3] = 50 mg q.d. non responders switching to 100 mg q.d., week 4
[4] = 50 mg q.d. non responders switching to 100 mg q.d., week 8
[5] = 50 mg q.d. non responders switching to 100 mg q.d., week 12
[6] = 50 mg q.d. non responders switching to 100 mg q.d., week 16
[7] = 50 mg q.d. non responders switching to 100 mg q.d., week 20
[8] = 50 mg q.d. non responders switching to 100 mg q.d., week 24

With `O=C(Nc1nc2cccc(-c3ccc(CN4CCS(=O)(=O)CC4)cc3)n2n1)C1CC1` [Compound 1, cyclopropanecarboxylic acid {5-[4-(1,1-dioxo-thiomorpholin-4-ylmethyl)-phenyl]-[1,2,4]triazolo[1,5-a]pyridin-2yl}-amide] the “Atherogenic index Mean percentage CFB - 24 weeks results” value [1] was −0.49%, the “Atherogenic index Median CFB - 24 weeks results” value [1] was 0.00 mmol/L and the “Atherogenic index Median percentage CFB - 24 weeks results” value [1] was 0.00%. For the same molecule, the “Atherogenic index Mean percentage CFB - 24 weeks results” value [2] was 0.40%, the “Atherogenic index Median CFB - 24 weeks results” value [2] was -0.10 mmol/L and the “Atherogenic index Median percentage CFB - 24 weeks results” value [2] was −2.38%. The “Atherogenic index Median CFB - 24 weeks results” value [3] was -0.20 mmol/L, the “Atherogenic index Median percentage CFB - 24 weeks results” value [3] was −6.67% and the “Atherogenic index Mean percentage CFB - 24 weeks results” value [4] was 3.03%. The “Atherogenic index Median CFB - 24 weeks results” value [4] was -0.20 mmol/L, the “Atherogenic index Median percentage CFB - 24 weeks results” value [4] was −6.82% and the “Atherogenic index Mean percentage CFB - 24 weeks results” value [5] was −2.71%. The “Atherogenic index Median CFB - 24 weeks results” value [5] was -0.20 mmol/L, the “Atherogenic index Median percentage CFB - 24 weeks results” value [5] was −5.88% and the “Atherogenic index Mean percentage CFB - 24 weeks results” value [6] was −3.31%. The “Atherogenic index Median CFB - 24 weeks results” value [6] was -0.20 mmol/L, the “Atherogenic index Median percentage CFB - 24 weeks results” value [6] was −5.00% and the “Atherogenic index Mean percentage CFB - 24 weeks results” value [7] was −3.58%. The “Atherogenic index Median CFB - 24 weeks results” value [7] was -0.20 mmol/L, the “Atherogenic index Median percentage CFB - 24 weeks results” value [7] was −5.88% and the “Atherogenic index Mean percentage CFB - 24 weeks results” value [8] was −7.04%. For the same molecule, the “Atherogenic index Median CFB - 24 weeks results” value [8] was -0.30 mmol/L, the “Atherogenic index Median percentage CFB - 24 weeks results” value [8] was −9.97% and the “Atherogenic index Mean percentage CFB - 24 weeks results” value (50 mg q.d. responders, week 1) was −0.34%. The “Atherogenic index Median CFB - 24 weeks results” value (50 mg q.d. responders, week 1) was -0.10 mmol/L, the “Atherogenic index Mean percentage CFB - 24 weeks results” value (50 mg q.d. responders, week 2) was −3.56% and the “Atherogenic index Median CFB - 24 weeks results” value (50 mg q.d. responders, week 2) was -0.05 mmol/L. For the same molecule, the “Atherogenic index Mean percentage CFB - 24 weeks results” value (50 mg q.d. responders, week 4) was −2.87%, the “Atherogenic index Median CFB - 24 weeks results” value (50 mg q.d. responders, week 4) was -0.25 mmol/L and the “Atherogenic index Median percentage CFB - 24 weeks results” value (50 mg q.d. responders, week 4) was −7.69%. For the same molecule, the “Atherogenic index Mean percentage CFB - 24 weeks results” value (50 mg q.d. responders, week 8) was −2.06%, the “Atherogenic index Median CFB - 24 weeks results” value (50 mg q.d. responders, week 8) was -0.10 mmol/L and the “Atherogenic index Mean percentage CFB - 24 weeks results” value (50 mg q.d. responders, week 12) was 0.89%. For the same molecule, the “Atherogenic index Median CFB - 24 weeks results” value (50 mg q.d. responders, week 12) was -0.10 mmol/L, the “Atherogenic index Median percentage CFB - 24 weeks results” value (50 mg q.d. responders, week 12) was −2.56% and the “Atherogenic index Mean percentage CFB - 24 weeks results” value (50 mg q.d. responders, week 16) was 1.59%. The “Atherogenic index Median CFB - 24 weeks results” value (50 mg q.d. responders, week 16) was 0.00 mmol/L, the “Atherogenic index Median percentage CFB - 24 weeks results” value (50 mg q.d. responders, week 16) was 0.00% and the “Atherogenic index Median CFB - 24 weeks results” value (50 mg q.d. responders, week 20) was -0.20 mmol/L. The “Atherogenic index Median percentage CFB - 24 weeks results” value (50 mg q.d. responders, week 20) was −4.04%, the “Atherogenic index Median CFB - 24 weeks results” value (50 mg q.d. responders, week 24) was -0.20 mmol/L and the “Atherogenic index Median percentage CFB - 24 weeks results” value (50 mg q.d. responders, week 24) was −5.77%. For the same molecule, the “Atherogenic index Mean CFB - 12 weeks results” value (“Atherogenic index Mean CFB” for short) (50 mg q.d., week 1) was 0.00 mmol/L, the “Atherogenic index Mean percentage CFB - 12 weeks results” value (50 mg q.d., week 1) was −0.38% and the “Atherogenic index Median CFB - 12 weeks results” value (50 mg q.d., week 1) was 0.00 mmol/L. The “Atherogenic index Median percentage CFB - 12 weeks results” value (50 mg q.d., week 1) was 0.00%, the “Atherogenic index Mean CFB” value (50 mg q.d., week 2) was -0.10 mmol/L and the “Atherogenic index Median CFB - 12 weeks results” value (50 mg q.d., week 2) was -0.10 mmol/L. For the same molecule, the “Atherogenic index Median percentage CFB - 12 weeks results” value (50 mg q.d., week 2) was −2.38%, the “Atherogenic index Mean CFB” value (50 mg q.d., week 4) was -0.13 mmol/L and the “Atherogenic index Mean percentage CFB - 12 weeks results” value (50 mg q.d., week 4) was −2.63%. For the same molecule, the “Atherogenic index Median CFB - 12 weeks results” value (50 mg q.d., week 4) was -0.20 mmol/L, the “Atherogenic index Median percentage CFB - 12 weeks results” value (50 mg q.d., week 4) was −7.69% and the “Atherogenic index Mean CFB” value (50 mg q.d., week 8) was -0.03 mmol/L. The “Atherogenic index Mean percentage CFB - 12 weeks results” value (50 mg q.d., week 8) was −0.95%, the “Atherogenic index Median CFB - 12 weeks results” value (50 mg q.d., week 8) was -0.10 mmol/L and the “Atherogenic index Median percentage CFB - 12 weeks results” value (50 mg q.d., week 8) was −2.70%. For the same molecule, the “Atherogenic index Mean CFB” value (50 mg q.d., week 12) was 0.01 mmol/L, the “Atherogenic index Mean percentage CFB - 12 weeks results” value (50 mg q.d., week 12) was 0.09% and the “Atherogenic index Median CFB - 12 weeks results” value (50 mg q.d., week 12) was -0.10 mmol/L. For the same molecule, the “Atherogenic index Median percentage CFB - 12 weeks results” value (50 mg q.d., week 12) was −3.85%, the “Atherogenic index Mean CFB” value (100 mg q.d., week 1) was -0.05 mmol/L and the “Atherogenic index Mean percentage CFB - 12 weeks results” value (100 mg q.d., week 1) was −0.84%. For the same molecule, the “Atherogenic index Mean percentage CFB - 24 weeks results” value (100 mg q.d., week 1) was −0.84%, the “Atherogenic index Median CFB - 12 weeks results” value (100 mg q.d., week 1) was 0.00 mmol/L and the “Atherogenic index Median CFB - 24 weeks results” value (100 mg q.d., week 1) was 0.00 mmol/L. The “Atherogenic index Median percentage CFB - 12 weeks results” value (100 mg q.d., week 1) was 0.00%, the “Atherogenic index Median percentage CFB - 24 weeks results” value (100 mg q.d., week 1) was 0.00% and the “Atherogenic index Mean CFB” value (100 mg q.d., week 2) was -0.11 mmol/L. For the same molecule, the “Atherogenic index Mean percentage CFB - 12 weeks results” value (100 mg q.d., week 2) was −2.82%, the “Atherogenic index Mean percentage CFB - 24 weeks results” value (100 mg q.d., week 2) was −2.82% and the “Atherogenic index Median CFB - 12 weeks results” value (100 mg q.d., week 2) was -0.20 mmol/L. The “Atherogenic index Median CFB - 24 weeks results” value (100 mg q.d., week 2) was -0.20 mmol/L, the “Atherogenic index Median percentage CFB - 12 weeks results” value (100 mg q.d., week 2) was −6.25% and the “Atherogenic index Median percentage CFB - 24 weeks results” value (100 mg q.d., week 2) was −6.25%. The “Atherogenic index Mean CFB” value (100 mg q.d., week 4) was -0.19 mmol/L, the “Atherogenic index Mean percentage CFB - 12 weeks results” value (100 mg q.d., week 4) was −4.17% and the “Atherogenic index Mean percentage CFB - 24 weeks results” value (100 mg q.d., week 4) was −4.17%.
